“And” between values parts separate entries of the source, which are not always exact repeats. Identical values can stand only once. “Also recorded” adds a separate entry of the source. Like-named read-outs stand apart in the source and are kept apart here.
Experiments:
[1] = system: Cov434-AMHRII Asc1a5 tumour cells;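 further: control mice received NaCl solution, survival endpoint was euthanasia once tumour volume hit 2000 mm^3 or on ethical grounds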
From the text: A solution of NaCl was used as the control.
(§1) The animals were sacrificed when the tumour volumes reached 2000 mm^3 or for ethical reasons. The curves of mean values and median values as well as the statistical analyses were stopped when 20% of the mice in the group were dead.

[2] = system: Cov434-AMHRII Asc1a5 tumour cells (a cell line of human ovarian cancer); assay: Anti-tumour activity of 3C23K alone or with paclitaxel in Cov434-AMHRII Asc1a5 xenograft (tumour volume, T/C ratio, statistical analysis); details: for Individual tumour volume: individual mice;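 on all read-outs here: subcutaneous Cov434-AMHRII Asc1a5 xenografts in female Swiss nude mice, tumour volume from length×width×height/2 in mm^3, randomized D13, dosing from D14, 8 mice per group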
Method: Female Swiss nude mice (Harlan Laboratories) were injected subcutaneously (s.c.) with 7.10^6 cells of Cov434-AMHRII Asc1a5 (cell line of human ovarian cancer transfected with cDNA AMHRII) in Matrigel (1:1 ratio) under a volume of 150 μL on day 0 (D0).
The mice were randomized on D13, when the volume of the tumours was between 58 and 150 mm^3, and the treatments began on D14 (8 mice per group).
The tumours were usually measured twice weekly. Tumour volume (TV) was calculated using the following formula, in which the length corresponds to the largest of the tumour diameters, the width corresponds to the smallest of the tumour diameters and the tumour height: TV (mm^3)=(length×width×height)/2.
In addition, for each group, curves of tumour growth were plotted using the calculated mean tumour volumes or the median tumour volumes.
as §1
In one experiment with 8 mice per group, the curves and analyses were stopped when fewer than 7 values per group had been obtained (7 mice alive).
The statistical differences between the different groups were analysed by ANOVA comparison using the Statgraphics centurion XV software.
The ANOVA table breaks down the variance into two components: an inter-group component and an intra-group component. The ratio F is the ratio of the inter-group estimate to the intra-group estimate. When the P value of test F is greater than or equal to 0.05, there is no statistically significant difference between the mean values of the two groups, with a confidence level of 95%. P values less than 0.05 indicate a significant difference between the mean values of the two groups with a confidence level of 95%.
A Kruskal-Wallis test was also carried out. When the P value is greater than or equal to 0.05, there is no statistically significant difference between the median of the two groups, with a confidence level of 95%. P values less than 0.05 indicate a significant difference between the medians of the two groups with a confidence level of 95%.
The treatment is initiated on day 14 after injection.

[3] = biological target: T1, human anti-Müllerian hormone type II receptor (AMHR-II) (Homo sapiens, UniProt Q16671); details: compared with unmutated humanized and chimeric 12G4; cited from earlier work
T1 sequence (Q16671 18-573): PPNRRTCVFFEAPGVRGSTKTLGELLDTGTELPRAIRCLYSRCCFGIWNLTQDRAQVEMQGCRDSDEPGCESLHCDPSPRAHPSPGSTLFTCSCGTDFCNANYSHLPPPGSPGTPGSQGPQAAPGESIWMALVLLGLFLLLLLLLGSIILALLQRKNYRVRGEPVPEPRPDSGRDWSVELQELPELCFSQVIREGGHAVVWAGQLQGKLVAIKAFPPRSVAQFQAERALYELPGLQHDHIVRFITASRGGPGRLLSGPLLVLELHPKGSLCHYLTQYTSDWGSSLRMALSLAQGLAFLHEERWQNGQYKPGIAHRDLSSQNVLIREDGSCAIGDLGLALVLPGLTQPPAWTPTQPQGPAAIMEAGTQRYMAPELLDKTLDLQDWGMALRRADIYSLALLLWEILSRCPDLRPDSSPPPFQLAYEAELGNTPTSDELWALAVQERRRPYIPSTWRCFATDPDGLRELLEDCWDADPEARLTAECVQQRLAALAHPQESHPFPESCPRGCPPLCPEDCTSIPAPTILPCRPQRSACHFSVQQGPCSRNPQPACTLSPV

[4] = D13, contrast vs paclitaxel 15 mg/kg q7d4
[5] = D20, contrast vs paclitaxel 15 mg/kg q7d4
[6] = D24, contrast vs paclitaxel 15 mg/kg q7d4
[7] = D27, contrast vs paclitaxel 15 mg/kg q7d4
[8] = D31, contrast vs paclitaxel 15 mg/kg q7d4
[9] = D35, contrast vs paclitaxel 15 mg/kg q7d4
[10] = D41, contrast vs paclitaxel 15 mg/kg q7d4
[11] = Day 13, randomization, before treatment

Question: Which “Survival parameter: logrank test chi-squared” value ([1]; contrast vs control) does the source give for “3C23K: mutated humanized 12G4 monoclonal antibody binding AMHR-II, produced by the 3C23K clone; light chain SEQ ID NO: 11, heavy chain SEQ ID NO: 13” here?
Answer: 11.15

Question: What about the “Survival parameter: logrank test chi-squared” value ([1]; contrast vs paclitaxel 15 mg/kg q7d4) of the same substance?
Answer: 12.36

Question: What about the “Survival parameter Mean” value ([1]; group of 8 mice) of the same substance?
Answer: 70 days

Question: What about the “Survival parameter Median” value ([1]; group of 8 mice) of the same substance?
Answer: 73 days

Question: And the “Observations: End of experiment TV” value ([1]; individual mice alive at day 83)?
Answer: 1615 mm3 and 1463 mm3

Question: What about the Observations ([1]; individual mice alive at day 83, end of experiment) of the same substance?
Answer: End of experiment no

Question: And the “survival parameter” value ([1]; individual mice, experiment ended on day 83)?
Answer: 51 Days and 55 Days and 62 Days and 69 Days and 76 Days and 83 Days (3×)

Question: What about the “Statistical analysis based on the survival parameter (in words)” value ([1]; mouse, in vivo) of the same substance?
Answer: significant anti-tumour activity; also recorded: significantly different from that of paclitaxel in monotherapy

Question: And the “ANOVA F-ratio” value ([2]; D13, contrast vs control)?
Answer: 0.00

Question: And the “Kruskal-Wallis Test” value ([2]; D13, contrast vs control)?
Answer: 0.00

Question: And the “ANOVA F-ratio” value [2, 4]?
Answer: 0.11

Question: And the “Kruskal-Wallis Test” value [2, 4]?
Answer: 0.03

Question: What about the “ANOVA F-ratio” value ([2]; D20, contrast vs control) of the same substance?
Answer: 5.33

Question: What about the “Kruskal-Wallis Test” value ([2]; D20, contrast vs control) of the same substance?
Answer: 4.44

Question: And the “ANOVA F-ratio” value [2, 5]?
Answer: 9.54

Question: And the “Kruskal-Wallis Test” value [2, 5]?
Answer: 6.39

Question: What about the “Statistical analysis of tumour volume (in words)” value ([2]; D20 to D41) of the same substance?
Answer: significant anti-tumour activity; also recorded: significantly different from that of paclitaxel in monotherapy

Question: And the “ANOVA F-ratio” value ([2]; D24, contrast vs control)?
Answer: 9.83

Question: What about the “Kruskal-Wallis Test” value ([2]; D24, contrast vs control) of the same substance?
Answer: 4.41

Question: What about the “ANOVA F-ratio” value [2, 6] of the same substance?
Answer: 8.53

Question: What about the “Kruskal-Wallis Test” value [2, 6] of the same substance?
Answer: 8.70

Question: What about the “ANOVA F-ratio” value ([2]; D27, contrast vs control) of the same substance?
Answer: 8.21

Question: What about the “Kruskal-Wallis Test” value ([2]; D27, contrast vs control) of the same substance?
Answer: 4.87

Question: What about the “ANOVA F-ratio” value [2, 7] of the same substance?
Answer: 8.92

Question: What about the “Kruskal-Wallis Test” value [2, 7] of the same substance?
Answer: 8.66

Question: What about the “ANOVA F-ratio” value ([2]; D31, contrast vs control) of the same substance?
Answer: 10.00

Question: What about the “Kruskal-Wallis Test” value ([2]; D31, contrast vs control) of the same substance?
Answer: 4.86

Question: What about the “ANOVA F-ratio” value [2, 8] of the same substance?
Answer: 8.01

Question: And the “Kruskal-Wallis Test” value [2, 8]?
Answer: 8.66

Question: And the “ANOVA F-ratio” value ([2]; D35, contrast vs control)?
Answer: 8.26

Question: And the “Kruskal-Wallis Test” value ([2]; D35, contrast vs control)?
Answer: 5.11

Question: What about the “ANOVA F-ratio” value [2, 9] of the same substance?
Answer: 10.47

Question: What about the “Kruskal-Wallis Test” value [2, 9] of the same substance?
Answer: 8.65

Question: And the “ANOVA F-ratio” value ([2]; D41, contrast vs control)?
Answer: 11.82

Question: And the “Kruskal-Wallis Test” value ([2]; D41, contrast vs control)?
Answer: 5.36

Question: What about the “ANOVA F-ratio” value [2, 10] of the same substance?
Answer: 12.64

Question: And the “Kruskal-Wallis Test” value [2, 10]?
Answer: 7.71

Question: What about the Mean tumour volume [2, 11] of the same substance?
Answer: 92 mm^3

Question: And the Median tumour volume [2, 11]?
Answer: 89 mm^3

Question: And the Individual tumour volume ([2]; Day 13)?
Answer: 144 mm3 and 98 mm3 (2×) and 90 mm3 and 76 mm3 and 73 mm3

Question: And the Mean tumour volume ([2]; Day 20)?
Answer: 111 mm^3

Question: What about the Median tumour volume ([2]; Day 20) of the same substance?
Answer: 107 mm^3

Question: What about the Individual tumour volume ([2]; Day 20) of the same substance?
Answer: 105 mm3 and 135 mm3 and 88 mm3 and 140 mm3 and 150 mm3 and 60 mm3

Question: What about the Mean tumour volume ([2]; Day 24) of the same substance?
Answer: 97 mm^3

Question: And the Median tumour volume ([2]; Day 24)?
Answer: 93 mm^3

Question: And the Individual tumour volume ([2]; Day 24)?
Answer: 158 mm3 and 180 mm3 and 0 mm3 and 102 mm3 and 114 mm3 and 68 mm3

Question: What about the Mean tumour volume ([2]; Day 27) of the same substance?
Answer: 144 mm^3

Question: What about the Median tumour volume ([2]; Day 27) of the same substance?
Answer: 129 mm^3

Question: And the Individual tumour volume ([2]; Day 27)?
Answer: 252 mm3 and 289 mm3 and 0 mm3 and 192 mm3 and 168 mm3 and 72 mm3

Question: What about the Mean tumour volume ([2]; Day 31) of the same substance?
Answer: 153 mm^3

Question: What about the Median tumour volume ([2]; Day 31) of the same substance?
Answer: 162 mm^3

Question: And the Individual tumour volume ([2]; Day 31)?
Answer: 184 mm3 and 404 mm3 and 0 mm3 and 204 mm3 and 198 mm3 and 68 mm3

Question: What about the Mean tumour volume ([2]; Day 35) of the same substance?
Answer: 310 mm^3

Question: What about the Median tumour volume ([2]; Day 35) of the same substance?
Answer: 317 mm^3

Question: What about the Individual tumour volume ([2]; Day 35) of the same substance?
Answer: 366 mm3 and 592 mm3 and 0 mm3 and 488 mm3 and 528 mm3 and 122 mm3

Question: And the Mean tumour volume ([2]; Day 41)?
Answer: 429 mm^3

Question: What about the Median tumour volume ([2]; Day 41) of the same substance?
Answer: 467 mm^3

Question: What about the Individual tumour volume ([2]; Day 41) of the same substance?
Answer: 560 mm3 and 844 mm3 and 0 mm3 and 540 mm3 and 634 mm3 and 293 mm3

Question: What about the Mean tumour volume ([2]; Day 45) of the same substance?
Answer: 577 mm^3

Question: And the Median tumour volume ([2]; Day 45)?
Answer: 577 mm^3

Question: What about the Individual tumour volume ([2]; Day 45) of the same substance?
Answer: 918 mm3 and 1256 mm3 and 0 mm3 and 624 mm3 and 731 mm3 and 392 mm3

Question: What about the Mean tumour volume ([2]; Day 48) of the same substance?
Answer: 664 mm^3

Question: And the Median tumour volume ([2]; Day 48)?
Answer: 620 mm^3

Question: And the Individual tumour volume ([2]; Day 48)?
Answer: 912 mm3 and 1672 mm3 and 0 mm3 and 551 mm3 and 833 mm3 and 381 mm3 and 689 mm3

Question: And the Mean tumour volume ([2]; Day 51)?
Answer: 832 mm^3

Question: And the Median tumour volume ([2]; Day 51)?
Answer: 712 mm^3

Question: What about the Individual tumour volume ([2]; Day 51) of the same substance?
Answer: 1485 mm3 and 2035 mm3 and 0 mm3 and 587 mm3 and 900 mm3 and 462 mm3 and 837 mm3

Question: What about the Individual tumour volume ([2]; Day 55) of the same substance?
Answer: 2080 mm3 and 0 mm3 and 990 mm3 and 1084 mm3 and 600 mm3 and 1309 mm3

Question: And the Individual tumour volume ([2]; Day 58)?
Answer: 0 mm3 and 1482 mm3 and 1350 mm3 and 842 mm3 and 1665 mm3

Question: And the Individual tumour volume ([2]; Day 62)?
Answer: 0 mm3 and 1080 mm3 and 1440 mm3 and 640 mm3 and 2057 mm3

Question: And the Individual tumour volume ([2]; Day 66)?
Answer: 0 mm3 and 1695 mm3 and 1512 mm3 and 666 mm3

Question: And the Individual tumour volume ([2]; Day 69)?
Answer: 0 mm3 and 1788 mm3 and 1496 mm3 and 950 mm3

Question: And the Individual tumour volume ([2]; Day 73)?
Answer: 0 mm3 and 1820 mm3 and 1559 mm3 and 1018 mm3

Question: And the Individual tumour volume ([2]; Day 76)?
Answer: 0 mm3 and 2296 mm3 and 1238 mm3 and 1140 mm3

Question: What about the Individual tumour volume ([2]; Day 80) of the same substance?
Answer: 0 mm3 and 1520 mm3 and 1254 mm3

Question: What about the Individual tumour volume ([2]; Day 83) of the same substance?
Answer: 0 mm3 and 1615 mm3 and 1463 mm3

Question: What about the “Anti-tumour activity (in words)” value ([2]; paclitaxel study) of the same substance?
Answer: significant anti-tumour activity; also recorded: anti-tumour effect greater than that of paclitaxel

Question: And the T/C ratio ([2]; relative to control group, Day 13 (before treatment))?
Answer: 95%

Question: What about the T/C ratio ([2]; relative to control group, Day 20) of the same substance?
Answer: 57%

Question: What about the T/C ratio ([2]; relative to control group, Day 24) of the same substance?
Answer: 28%

Question: And the T/C ratio ([2]; relative to control group, Day 27)?
Answer: 25%

Question: What about the T/C ratio ([2]; relative to control group, Day 31) of the same substance?
Answer: 21%

Question: What about the T/C ratio ([2]; relative to control group, Day 35) of the same substance?
Answer: 27%

Question: What about the T/C ratio ([2]; relative to control group, Day 41) of the same substance?
Answer: 29%

Question: And the T/C ratio ([2]; relative to control, after D20 up to D41 (b191 prints D40))?
Answer: less than 29%

Question: And the T/C ratio ([2]; relative to paclitaxel group, Day 13 (before treatment))?
Answer: 98%

Question: What about the T/C ratio ([2]; relative to paclitaxel group, Day 20) of the same substance?
Answer: 47%

Question: And the T/C ratio ([2]; relative to paclitaxel group, Day 24)?
Answer: 35%

Question: What about the T/C ratio ([2]; relative to paclitaxel group, Day 27) of the same substance?
Answer: 38%

Question: And the T/C ratio ([2]; relative to paclitaxel group, Day 31)?
Answer: 39%

Question: And the T/C ratio ([2]; relative to paclitaxel group, Day 35)?
Answer: 32%

Question: What about the “Affinity for AMHR-II (in words)” value [3] of the same substance?
Answer: affinity far better than that of the unmutated humanized 12G4 antibody
